Laboratory results published in patent US4945162A, “Novel radioactive propyl 2-iodospiroperidol and processes for the preparation thereof” (Sumitomo Chemical Company, Limited, priority 1986, dated 1990).

Target: T1, Dopamine Receptors (Rat Striatal Membranes) (Rattus norvegicus, UniProt P61169)
T1 construct: For ^3 H-SP to Rat Striatal Membranes; from tissue; host or cells: rat striatum (membranes)
Assay: Inhibition of specific ^3 H-SP binding (dopamine receptor binding affinity) to rat striatal membranes
Settings: for Ki / IC50: 23° C., 30 minutes, ketanserine present; for IC50: nonspecific binding with (+)butaclamol, triplicate; for Relative Potency: relative to 2-ISP = 100
Method: PISP, 2-ISP and MISP were screened as for the dopamine receptor binding affinity according to the method reported by Hamblin [Biochem. Pharmacol. 33, 877-887 (1984)]. An aliquot of striatal membrane preparations was incubated at 23° C. for 30 minutes with each of the unlabeled competing drugs (PISP, 2-ISP and MISP) in different concentration, ketanserine and ^3 H-spiroperidol (hereinafter referred to as ^3 H-SP). The incubation was terminated by adding ice-cold TEAN buffer followed by a rapid filtration through a Whatman GF/B filter. The bound ^3 H-SP retained on the filter was extracted with ACS II (Amersham) and counted. All incubations were done in triplicate. Nonspecific binding was determined in tubes containing (+)butaclamol. Specific binding was calculated by subtracting the nonspecific binding from the total binding. IC50 values, the concentrations of the tested compounds that cause 50% inhibition of the specific ^3 H-SP binding, were assessed using from six to eight samples at different concentrations, in triplicate.

T1 sequence (P61169 whole entry): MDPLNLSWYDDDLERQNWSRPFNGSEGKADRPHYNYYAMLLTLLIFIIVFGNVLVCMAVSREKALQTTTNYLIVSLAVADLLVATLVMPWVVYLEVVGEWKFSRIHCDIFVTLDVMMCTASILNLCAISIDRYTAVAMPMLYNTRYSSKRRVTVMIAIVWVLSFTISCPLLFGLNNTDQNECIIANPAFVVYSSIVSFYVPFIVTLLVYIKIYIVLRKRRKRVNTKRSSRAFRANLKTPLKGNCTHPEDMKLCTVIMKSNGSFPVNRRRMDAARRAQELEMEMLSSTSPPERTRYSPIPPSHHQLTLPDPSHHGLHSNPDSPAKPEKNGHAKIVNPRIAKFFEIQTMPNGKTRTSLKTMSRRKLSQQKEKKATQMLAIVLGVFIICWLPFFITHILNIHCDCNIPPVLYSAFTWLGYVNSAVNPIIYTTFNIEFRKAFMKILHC

Compound	Ki	IC50	Relative Potency
CCCN1CN(c2ccccc2)C2(CCN(CCCC(=O)c3ccc(F)cc3I)CC2)C1=O [PISP, 8-[4-(4-fluoro-2-iodophenyl)-4-oxobutyl]-3-propyl-1-phenyl-1,3,8-triazaspiro[4.5]decan-4-one]	0.2 nM	2.5 nM	500
CN1CN(c2ccccc2)C2(CCN(CCCC(=O)c3ccc(F)cc3I)CC2)C1=O [MISP, methyl 2-iodospiroperidol]	5 nM	55 nM	20
O=C(CCCN1CCC2(CC1)C(=O)NCN2c1ccccc1)c1ccc(F)cc1I [2-ISP, 2-iodospiroperidol]	1 nM	11 nM	100
